# Measurements from patent US20240239818A1, “COMPOUNDS AND COMPOSITIONS COMPRISING FLUOROPHORES FOR USE IN VISUALIZATION AND PURIFICATION OR MANIPULATION” (priority 2022, published 2024).
# Assays:
# [1] = biological target: T1, HaloTag®-PDGFR fusion protein (Rhodococcus rhodochrous, UniProt P0A3G2, A155T/A167V/A172T/A224E/C128F/C176G/D78G/E160K/E257K/H272N/K175M/K195N/L47V/L88M/N227D/S58T/T264A/Y273L/Y87F); test: Live-cell labeling of cell surface HaloTag® fusion in U2OS cells (Airyscan fluorescence microscopy); assay type: cell-based; conditions: 100 nM, 1 h
# T1 construct: expressed in transfected cells; host or cells: U2OS, transient nucleofection
# Method: (§1) U2OS cell culture, labeling, and fluorescence microscopy. U2OS cells (ATCC) were cultured in Dulbecco's modified Eagle medium (DMEM, phenol red-free; Life Technologies) supplemented with 10% (v/v) fetal bovine serum (FBS, Life Technologies), 1 mM GlutaMAX (Life Technologies) and maintained at 37° C. in a humidified 5% (v/v) CO2 environment. These cell lines undergo regular mycoplasma testing by the Janelia Cell Culture Facility. U2OS cells stably expressing an integrated HaloTag®-histone H2B fusion protein (U2OS.H2B.HaloTag®) were used for nuclear imaging and imaged 18-24 h post-plating. […]
# (§2) Live cell imaging with biotin-rhodamine HaloTag® ligands. Having evaluated biotin ligands 12-15 in vitro, their ability to label HaloTag® fusions in live mammalian cells was tested. […] Quantification of the intracellular fluorescence signal from JF549 and msGFP channel further confirmed the poor labeling from 12 (FIG. 9).
# [2] = test system: HaloTag®-TOMM20, HaloTag®-Sec61β, HaloTag®-histone H2B fusion proteins; assay type: cell-based
# Method: as §1, §2
# Sequence of HaloTag®-TOMM20, HaloTag®-Sec61β, HaloTag®-histone H2B fusion proteins (as listed by the source): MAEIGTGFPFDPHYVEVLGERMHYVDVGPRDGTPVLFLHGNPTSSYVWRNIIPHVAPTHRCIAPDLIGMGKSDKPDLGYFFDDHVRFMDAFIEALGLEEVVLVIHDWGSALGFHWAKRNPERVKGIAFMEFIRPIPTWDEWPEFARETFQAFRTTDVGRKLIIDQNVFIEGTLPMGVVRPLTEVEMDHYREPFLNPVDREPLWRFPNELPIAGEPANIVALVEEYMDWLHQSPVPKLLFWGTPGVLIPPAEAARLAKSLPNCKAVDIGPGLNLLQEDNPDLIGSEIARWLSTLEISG
# T1 sequence (P0A3G2 other isoform, or with tags, fused parts or gaps with the stated changes): as the sequence (as listed by the source) above
substance,measurement,setting,value
Biotin-JF549-HaloTag® ligand [compound 12],labeling of extracellular HaloTag®-PDGFR fusion,[1],robust labeling of the cellular membrane
same,cell-permeability,[2],poor cell-permeability
same,labeling of intracellular HaloTag® fusions,"[2]; live U2OS cells, 100 nM, 1 h, mitochondria, ER, nucleus",did not show an appreciable signal
